From publication PMC7822874, “Chemoprotective antimalarials identified through quantitative high-throughput screening of Plasmodium blood and liver stage parasites” (Scientific Reports, 2021)
“And” between values parts separate entries of the source, which are not always exact repeats. Equal values may be shown once. Read-outs that look alike come from different tables or passages of the source.

Assays:
[1] = system: P. berghei-ANKA-GFP-LucCON liver stage parasites in HepG2-A16-CD81EGFP cells; assay: P. berghei liver stage Pb-Luc assay, Method 1 (UCSD, 1536-well); type: cell-based, Plasmodium berghei; conditions: for activity at 1 µM / activity at 3 µM / AC50: Plasmodium berghei; for activity at 1 µM / activity at 3 µM: 48 h; for activity at 1 µM / activity at 3 µM / PbLuc 1uM growth rep1 / PbLuc 1uM growth rep2 / PbLuc 3uM growth rep1 / PbLuc 3uM growth rep2: average of 2 wells on a 1536 well plate; for Max Resp (signal direction of the dose response) / AC50: Method 1; for Max Resp (signal direction of the dose response): Decrease = decreasing P. berghei viability with dose, Increase = increasing signal, Inactive = no dose response
[2] = system: HepG2-A16-CD81EGFP cells; conditions: for HepG2 1uM growth rep1 / HepG2 1uM growth rep2: HepG2, 1 µM compound treatment (10 mM stocks); for HepG2 1uM growth rep1 / HepG2 3uM growth rep1: replicate 1, normalized; for HepG2 1uM growth rep1 / HepG2 1uM growth rep2 / HepG2 3uM growth rep1 / HepG2 3uM growth rep2: average of 2 wells; for HepG2 1uM growth rep2 / HepG2 3uM growth rep2: replicate 2, normalized; for HepG2 3uM growth rep1 / HepG2 3uM growth rep2: HepG2, 3 µM compound treatment (10 mM stocks)
[3] = system: Plasmodium falciparum Dd2 asexual blood stage parasites; assay: microbe, parasite or virus in culture; parameters: species or system Plasmodium falciparum Dd2 in human erythrocytes; single determination (one 11-point concentration-response curve); conditions: Plasmodium falciparum, DD2, Erythrocyte, 72 h; read-out: AC50
[4] = in vitro; conditions: human
[5] = P. berghei liver stage, 1 µM compound treatment (10 mM stocks), replicate 1, normalized, read-out: PbLuc 1uM growth rep1
[6] = P. berghei liver stage, 1 µM compound treatment (10 mM stocks), replicate 2, normalized, read-out: PbLuc 1uM growth rep2
[7] = P. berghei liver stage, 3 µM compound treatment (10 mM stocks), replicate 1, normalized, read-out: PbLuc 3uM growth rep1
[8] = P. berghei liver stage, 3 µM compound treatment (10 mM stocks), replicate 2, normalized, read-out: PbLuc 3uM growth rep2
[9] = P. berghei liver stage, 1 µM compound treatment (10 mM stocks), replicate 1, normalized
[10] = P. berghei liver stage, 1 µM compound treatment (10 mM stocks), replicate 2, normalized
[11] = P. berghei liver stage, 3 µM compound treatment (10 mM stocks), replicate 1, normalized
[12] = P. berghei liver stage, 3 µM compound treatment (10 mM stocks), replicate 2, normalized
[13] = Hill fit, 50% of maximum activity response, read-out: AC50
[14] = log10 of molar AC50 from Hill fit, read-out: Log AC50 (converted)
[15] = HepG2-A16-CD81EGFP cells, uninfected
[16] = 1 uM (compounds provided at 10 mM), column 11, read-out: Pb-Luc (P. berghei liver stage), % of control, lower concentration, first repeat
[17] = 1 uM (compounds provided at 10 mM), column 12, read-out: Pb-Luc (P. berghei liver stage), % of control, lower concentration, second repeat
[18] = 3 uM (compounds provided at 10 mM), column 8, read-out: Pb-Luc (P. berghei liver stage), % of control, higher concentration, first repeat
[19] = 3 uM (compounds provided at 10 mM), column 9, read-out: Pb-Luc (P. berghei liver stage), % of control, higher concentration, second repeat

Compound	HepG2 1uM growth rep1 [2] [%]	HepG2 1uM growth rep2 [2] [%]	HepG2 3uM growth rep1 [2] [%]	HepG2 3uM growth rep2 [2] [%]	PbLuc 1uM growth rep1 [1, 9] [%]	PbLuc 1uM growth rep2 [1, 10] [%]	PbLuc 3uM growth rep1 [1, 11] [%]	PbLuc 3uM growth rep2 [1, 12] [%]	AC50 [3] [nM]	also measured
O=C(CCCCCCC(=O)Nc1ccccc1)NO [NCGC00168085-22]										Pb-Luc signal, 1 uM, repeat 1 ([1]; nominal 1 uM (10 mM stock), […] for 15 mM, 1.2 uM for 12 mM, 2 uM for 20 mM stock, average of 2 wells, 1536-well plate, repeat 1): 18.69%; Pb-Luc signal, 1 uM, repeat 2 ([1]; nominal 1 uM (10 mM stock), […] for 15 mM, 1.2 uM for 12 mM, 2 uM for 20 mM stock, average of 2 wells, 1536-well plate, repeat 2): 22.42%; Pb-Luc signal, 1 uM, repeat 3 ([1]; nominal 1 uM (10 mM stock), […] for 15 mM, 1.2 uM for 12 mM, 2 uM for 20 mM stock, average of 2 wells, 1536-well plate, repeat 3): 16.08%; Pb-Luc signal, 3 uM, repeat 1 ([1]; nominal 3 uM (10 mM stock), 4.5 uM for 15 mM, 3.6 uM for 12 mM, 6 uM for 20 mM stock, average of 2 wells, 1536-well plate, repeat 1): 2.01%; Pb-Luc signal, 3 uM, repeat 2 ([1]; nominal 3 uM (10 mM stock), 4.5 uM for 15 mM, 3.6 uM for 12 mM, 6 uM for 20 mM stock, average of 2 wells, 1536-well plate, repeat 2): 4.89%; Pb-Luc signal, 3 uM, repeat 3 ([1]; nominal 3 uM (10 mM stock), 4.5 uM for 15 mM, 3.6 uM for 12 mM, 6 uM for 20 mM stock, average of 2 wells, 1536-well plate, repeat 3): 2.03%; HepG2 viability signal, 1 uM, repeat 1 [2]: 84.33%; HepG2 viability signal, 1 uM, repeat 2 [2]: 78.31%; HepG2 viability signal, 3 uM, repeat 1 [2]: 48.31%; HepG2 viability signal, 3 uM, repeat 2 [2]: 48.65%
Oc1ccccc1Nc1nc(NCc2ccccc2)c2ccccc2n1 [MLS000693415-01]	89	90	92	90						activity at 1 µM [1, 5]: 72%; activity at 1 µM [1, 6]: 80%; activity at 3 µM [1, 7]: 65%; activity at 3 µM [1, 8]: 75%
Cc1ccc(NC2=C/C(=N/S(=O)(=O)c3cccs3)c3ccccc3C2=O)cc1C [MLS000585841-01]	102	96	77	86	82	86	57	72		
CCSc1nc2sc3c(c2c(=O)n1-c1ccccc1)CCN(C(C)C)C3 [MLS001173590-01]	104	95	87	98	97	84	60	65		
Cc1ccc(-c2cc(C(=O)Nc3ccc(S(=O)(=O)N4CC(C)OC(C)C4)cc3)[nH]n2)c(O)c1 (stereo not drawn) [MLS000779230-01]	106	100	84	94	151	112	73	94		
C=C(C)CSc1nc2sc3c(c2c(=O)n1-c1ccc(C)cc1)CCN(C)C3 [MLS001173676-01]	102	92	84	90	91	84	44	74		
Br.N=c1n(CCN2CCCCC2)c2ccccc2n1CC(=O)c1ccc(Cl)c(Cl)c1 [MLS001042209-01]	87	90	85	90	90	95	75	102		
O=C1N(c2ccccc2C(F)(F)F)OC1(Cc1ccccc1)c1ccccc1 (stereo not drawn) [MLS002206595-01]	104	93	82	88	103	105	93	118		
Cc1ccc(Nc2cc(C)nc(NCc3ccccc3)n2)cc1 [MLS000574704-01]	83	84	81	80						activity at 1 µM [1, 5]: 61%; activity at 1 µM [1, 6]: 54%; activity at 3 µM [1, 7]: 31%; activity at 3 µM [1, 8]: 43%
CC(=O)OC[C@]12CCC(C)=C[C@H]1O[C@@H]1[C@H](O)[C@@H](OC(C)=O)[C@@]2(C)[C@]12CO2 [MLS000863617-01]										Pb-Luc (P. berghei liver stage luciferase signal), % of control, repeat 1 [1]: 4.68% and -0.33%; Pb-Luc (P. berghei liver stage luciferase signal), % of control, repeat 2 [1]: 4.34% and -1.04%; Pb-Luc (P. berghei liver stage luciferase signal), % of control, repeat 3 [1]: -2.60% and 1.77%; HepG2 viability, % of control, column 14 [2]: 5.74%; HepG2 viability, % of control, column 15 [2]: 8.75%; HepG2 viability, % of control, column 16 [2]: 5.74%; HepG2 viability, % of control, column 17 [2]: 8.75%
C=C(C)COc1ccc(-c2n[nH]cc2-c2ccc(OC)c(OC)c2)c(O)c1 [MLS000084580-01]									6680	Max Resp (signal direction of the dose response) [1]: Decrease; AC50 [1, 13]: 501 nM; AC50 [1, 14]: 501 nM; viability at 66 h [4, 15]: 36%
CC1=C(CC(=O)c2ccc(Cl)cc2)C(=O)c2ccccc2C1=O [MLS000543314-01]									211	activity at 1 µM [1, 16]: 78%; activity at 1 µM [1, 17]: 79%; activity at 3 µM [1, 18]: 77%; activity at 3 µM [1, 19]: 70%; viability at 48 h, 1 µM [4, 15]: 105%; viability at 48 h, 3 µM [4, 15]: 100%
CCOC(=O)c1cnc2c(C)cc(C)cc2c1O [MLS000530578-01]									4220	AC50 [1, 13]: 1410 nM; AC50 [1, 14]: 1410 nM; viability at 66 h [4]: 104%
CCOC(=O)c1ccc(N=C(S)N2CCN(CCNC3=CC(=O)CC(C)(C)C3)CC2)cc1 [MLS000710946-01]									5960	activity at 1 µM [1, 16]: 118%; activity at 1 µM [1, 17]: 96%; activity at 3 µM [1, 18]: 134%; activity at 3 µM [1, 19]: 116%; viability at 48 h, 1 µM [4, 15]: 96%; viability at 48 h, 3 µM [4, 15]: 101%
COc1cc2ccccc2cc1C(=O)N1CC(C)CC(C)C1 (stereo not drawn) [MLS001129394-01]									2370	activity at 1 µM [1, 16]: 125%; activity at 1 µM [1, 17]: 114%; activity at 3 µM [1, 18]: 67%; activity at 3 µM [1, 19]: 101%; viability at 48 h, 1 µM [4, 15]: 108%; viability at 48 h, 3 µM [4, 15]: 98%
CCCc1ccc(OCc2nc(-c3ccc(NC(=O)c4cccs4)cc3)no2)cc1 [MLS000584893-01]									15000	Max Resp (signal direction of the dose response) [1]: Decrease; AC50 [1, 13]: 1410 nM; AC50 [1, 14]: 1410 nM; viability at 48 h [4, 15]: 97.2%; viability at 48 h, 1 µM [4, 15]: 97.2%
